Experimental data published in patent publication US6306860A, “2,5-pyridinedicarboxylic acid derivatives” (Dong Wha Pharm. Inc. Co., Ltd., priority 1998, dated 2001).
Counter-ions that a name gives are not always drawn.

How the values were obtained:
HBV polymerase = molecular target: T1, HBV polymerase (Hepatitis B virus genotype D subtype ayw, UniProt P03156); assay: Inhibitory activities against HBV polymerase (reverse transcriptase activity) in vitro; type: biochemical; details: read-out: Inhibitory activity of HBV-RT (%); for inhibition at 0.01 µg/mL: 0.01 μg/ml; for inhibition at 0.1 µg/mL: 0.1 μg/ml; for inhibition at 1 µg/mL: 1 μg/ml
T1 construct: made in house; host or cells: E. coli
T1 sequence (P03156 whole entry): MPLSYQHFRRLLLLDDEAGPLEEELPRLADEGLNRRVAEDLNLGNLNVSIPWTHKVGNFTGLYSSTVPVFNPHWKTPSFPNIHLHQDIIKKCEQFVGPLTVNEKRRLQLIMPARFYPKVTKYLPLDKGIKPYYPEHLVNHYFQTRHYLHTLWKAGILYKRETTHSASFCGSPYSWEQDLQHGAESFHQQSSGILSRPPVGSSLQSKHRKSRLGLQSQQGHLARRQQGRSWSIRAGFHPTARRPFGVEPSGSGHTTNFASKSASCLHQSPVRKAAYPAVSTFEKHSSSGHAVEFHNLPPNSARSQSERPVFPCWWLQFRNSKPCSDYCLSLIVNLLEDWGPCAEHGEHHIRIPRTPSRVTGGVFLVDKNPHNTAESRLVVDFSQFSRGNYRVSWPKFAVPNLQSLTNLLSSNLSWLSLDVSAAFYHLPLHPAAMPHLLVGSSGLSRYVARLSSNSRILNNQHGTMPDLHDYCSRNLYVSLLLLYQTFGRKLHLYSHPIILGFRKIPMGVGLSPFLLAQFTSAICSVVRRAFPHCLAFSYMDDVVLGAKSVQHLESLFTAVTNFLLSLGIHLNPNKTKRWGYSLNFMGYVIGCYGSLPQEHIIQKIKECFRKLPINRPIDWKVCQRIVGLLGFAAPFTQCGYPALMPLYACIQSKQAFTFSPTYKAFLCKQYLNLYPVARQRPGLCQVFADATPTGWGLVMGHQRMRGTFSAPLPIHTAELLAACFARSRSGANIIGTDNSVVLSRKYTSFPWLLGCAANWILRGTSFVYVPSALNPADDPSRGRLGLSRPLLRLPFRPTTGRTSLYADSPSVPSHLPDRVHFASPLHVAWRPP
Description: Experiment 1:Inhibitory Activities Against HBV Polymerase in vitro
Recently, the inventors of the present invention have produced a recombinant HBV polymerase that is expressed from E.coli transformant, measured its enzyme activity and filed patent applications threrof [Korean Pat. Appl. Nos. 94-3918 and 96-33998].
The inventors have also established a method of measuring the reverse transcriptase activity of HBV polymerase in vitro. The fundamental principle is the same as the ELISA method, and after reacting the substrate with biotin- and DIG-modified nucleotide, a method of recognizing the polymerized substrate as anti-DIG antibody with peroxidase was used.
20 μl of HBV polymerase, 20 μl of reaction mixture and 20 μl of test compound was mixed and reacted at 14° C.~30° C. for 18~24 hours. Then, the inhibitory effect of the test compound against reverse transcriptase activity in the HBV polymerase was examined, compared with the results of control tests without the test compound.

[1] = molecular target: T2, HIV reverse transcriptase (Human immunodeficiency virus type 1 group M subtype B, UniProt P04585); assay: In vitro inhibition test against HIV reverse transcriptase; type: biochemical; details: read-out: Inhibitory activity of HIV-RT (%); for inhibition at 0.1 µg/mL: 0.1 μg/ml; for inhibition at 1 µg/mL: 1 μg/ml
T2 construct: purchased Boehringer Mannheim
Experimental: Experiment 2: The in vitro Inhibition Test Against HIV Reverse Transcriptase
The inhibitory activity in vitro was measured using a non-radioactive reverse transcriptase assay Kit (Boehringer Mannheim).
At first, 20 μl(40 ng) of HIV-RT was added to the wells, coated with streptavidin and with the addition of 20 μl reaction mixture containing template/primer hybrid poly(A)/oligo(dT)15 and DIG-(digoxigenin)-dUTP, biotin-dUTP and TTP, 20 μl of test compound was added and reacted at 37° C. for 1 hour. The control without test compound was used for the comparison of related activity. Since DNA containing nucleotide labeled with digoxigenin and biotine was prepared by the action of HIV-RT, it was combined with streptavidin coated at the bottom of the wells. After the reaction was completed, remaining impurities were removed by washing each well with 250 μl buffer solution (pH 7.0) for 30 seconds 5 times and with the addition of 200 μl anti-DIG-POD antibody, the mixture was reacted at 37° C. for 1 hour. For the removal of remaining impurities again, the reacting solution was washed with a buffer solution and with the addition of 200 μl ABTS™ each, a substrate of POD(peroxidase), the solution was reacted at room temperature for 30 minutes. The absorbance was read by ELISA reader at 405 nm for the assay of reverse transcriptase activity and its inhibition activity.

| Compound | inhibition at 0.01 µg/mL (HBV polymerase) | inhibition at 0.1 µg/mL (HBV polymerase) | inhibition at 1 µg/mL (HBV polymerase) | inhibition at 0.1 µg/mL [1] | inhibition at 1 µg/mL [1] |
| --- | --- | --- | --- | --- | --- |
| CC(C)Nc1cccnc1N1CCN(C(=O)c2ccc(C(=O)NC3CCSC3=O)cn2)CC1 (stereo not shown) [Exam. 57, 2-[1-[3-(isopropylamino)-2-pyridyl]piperazin-4-yl-carbonyl]-5-[N-(tetrahydro-2-thiophenon-3-yl)carbamoyl]pyridine] | 23% | 53% | 72% | 61% | 70% |
| CC(C)Nc1cccnc1N1CCN(C(=O)c2ccc(C(=O)NCCCN3CCCC3=O)cn2)CC1 [Exam. 58, 2-[1-[3-(isopropylamino)-2-pyridyl]piperazin-4-yl-carbonyl]-5-[N-[3-(2-pyrrolidinon-1-yl)propyl]carbamoyl]pyridine.HCl] | 63% | 72% | 84% | 45% | 63% |
| CC(C)Nc1cccnc1N1CCN(C(=O)c2ccc(C(=O)NCCN3CCOCC3)cn2)CC1 [Exam. 59, 2-[1-[3-(isopropylamino)-2-pyridyl]piperazin-4-yl-carbonyl]-5-[N-[2-(morpholin-4-yl)ethyl]carbamoyl]pyridine] | 49% | 60% | 70% | 15% | 61% |
| CCNc1cccnc1N1CCN(C(=O)c2ccc(C(=O)NCCN3CCOCC3)cn2)CC1 [Exam. 60, 2-[1-[3-(ethylamino)-2-pyridyl]piperazin-4-yl-carbonyl]-5-[N-[2-(morpholin4-yl)ethyl]carbamoyl]pyridine.HCl] | 30% | 52% | 66% | 55% | 73% |
| CC(C)Nc1cccnc1N1CCN(C(=O)c2ccc(C(=O)NCCN(C)C)cn2)CC1 [Exam. 62, 5-[N-[2-(dimethylamino)ethyl]carbamoyl]-2-[1-[3-(isopropylamino)-2-pyridyl]piperazin-4-yl-carbonyl]pyridine.HCl] | 47% | 58% | 69% | 63% | 79% |
| Cc1cc(NC(=O)c2ccc(C(=O)N3CCN(c4ncccc4NC(C)C)CC3)nc2)n[nH]1 [Exam. 66, 6-[1-[3-(isopropylamino)-2-pyridyl]piperazin-4-yl-carbonyl]-N-(5-methyl-1H-pyrazol-3-yl)nicotinamide] | 20% | 53% | 70% | 52% | 76% |
| Cc1cc(NC(=O)c2ccc(C(=O)N3CCN(c4ncccc4NC(C)C)CC3)nc2)no1 [Exam. 67, 6-[1-[3-(isopropylamino)-2-pyridyl]piperazin-4-yl-carbonyl]-N-(5-methylisoxazol-3-yl)nicotinamide] | 25% | 50% | 72% | 30% | 58% |
| Cc1csc(NC(=O)c2ccc(C(=O)N3CCN(c4ncccc4NC(C)C)CC3)nc2)n1 [Exam. 68, 6-[1-[3-(isopropylamino)-2-pyridyl)piperazin-4-yl-carbonyl]-N-(4-methyl-1,3-thiazol-2-yl)nicotinamide] | 30% | 69% | 81% | 53% | 70% |
| CC(C)Nc1cccnc1N1CCN(C(=O)c2ccc(C(=O)Nc3nncs3)cn2)CC1 [Exam. 69, 6-[1-[3-(isopropylamino)-2-pyridyl]piperazin-4-yl-carbonyl]-N-(1,3,4-thiadiazol-2-yl)nicotinamide] | 12% | 47% | 64% | 35% | 67% |
| CC(C)Nc1cccnc1N1CCN(C(=O)c2ccc(C(=O)Nc3ccccn3)cn2)CC1 [Exam. 70, 6-[1-[3-(isopropylamino)-2-pyridyl]piperazin-4-yl-carbonyl]-N-(2-pyridyl)nicotinamide] | 26% | 55% | 74% | 55% | 74% |
| COc1ccc(NC(=O)c2ccc(C(=O)N3CCN(c4ncccc4NC(C)C)CC3)nc2)cn1 [Exam. 71, 6-[1-[3-(isopropylamino)-2-pyridyl]piperazin-4-yl-carbonyl]-N-(6-methoxy-3-pyridyl)nicotinamide] | 59% | 70% | 83% | 48% | 74% |
| CC(C)Nc1cccnc1N1CCN(C(=O)c2ccc(C(=O)Nc3cnccn3)cn2)CC1 [Exam. 72, 6-[1-[3-(isopropylamino)-2-pyridyl]piperazin-4-yl-carbonyl]-N-(pyrazine-2-yl)nicotinamide] | 16% | 53% | 64% | 66% | 83% |
| CC(C)Nc1cccnc1N1CCN(C(=O)c2ccc(C(=O)NCc3ccccn3)cn2)CC1 [Exam. 73, 6-[1-[3-(isopropylamino)-2-pyridyl]piperazin-4-yl-carbonyl]-N-(2-pyridylmethyl)nicotinamide.HCl] | 53% | 62% | 77% | 57% | 73% |
| CCNc1cccnc1N1CCN(C(=O)c2ccc(C(=O)NCc3ccccn3)cn2)CC1 [Exam. 74, 6-[1-[3-(ethylamino)-2-pyridyl]piperazin-4-yl-carbonyl]-N-(2-pyridylmethyl)nicotinamide] | 19% | 56% | 70% | 61% | 80% |
| Nc1cccnc1N1CCN(C(=O)c2ccc(C(=O)NCc3ccccn3)cn2)CC1 [Exam. 75, 6-[1-(3-amino-2-pyridyl)piperazin-4-yl-carbonyl]-N-(2-pyridylmethyl)nicotinamide.HCl] | 22% | 54% | 72% | 53% | 72% |
| CC(C)Nc1cccnc1N1CCN(C(=O)c2ccc(C(=O)NCc3cccnc3)cn2)CC1 [Exam. 76, 6-[1-[3-(isopropylamino)-2-pyridyl]piperazin-4-yl-carbonyl]-N-(3-pyridylmethyl)nicotinamide] | 30% | 53% | 62% | 57% | 82% |
| CC(C)Nc1cccnc1N1CCN(C(=O)c2ccc(C(=O)NCc3ccncc3)cn2)CC1 [Exam. 77, 6-[1-[3-(isopropylamino)-2-pyridyl]piperazin-4-yl-carbonyl]-N-(4-pyridylmethyl)nicotinamide] | 39% | 65% | 79% | 59% | 79% |
| Cc1ncc(CO)c(CNC(=O)c2ccc(C(=O)N3CCN(c4ncccc4NC(C)C)CC3)nc2)c1O [Exam. 78] | 15% | 58% | 62% | 52% | 70% |
| CC(C)Nc1cccnc1N1CCN(C(=O)c2ccc(C(=O)NCc3ccco3)cn2)CC1 [Exam. 79, N-(2-Furylmethyl)-6-[1-[3-(isopropylamino)-2-pyridyl]piperazin-4-yl-carbonyl]nicotinamide.HCl] | 54% | 63% | 78% | 20% | 54% |
| CC(C)Nc1cccnc1N1CCN(C(=O)c2ccc(C(=O)NCCc3c[nH]cn3)cn2)CC1 [Exam. 80, N-[2-(1H-imidazol4-yl)ethyl]-6-[1-[3-(isopropylamino)-2-pyridyl]piperazin-4-yl-carbonyl]nicotinamide] | 52% | 61% | 70% | 21% | 48% |
